Measured values: a compilation of properties of binary mixtures (doi:10.1016/j.molliq.2009.05.001)

Experiment: xn = mol fraction of the nth substance listed
Settings: 101 kPa; for viscosity: 298.1 K; for electrical conductivity: 298.15 K

Row | Structure (SMILES) | viscosity (x1 = 1) [mPa·s] | electrical conductivity (x1 = 1) [S/m] | viscosity (x2 = 0) [mPa·s] | viscosity (x2 = 0.2164) [mPa·s] | viscosity (x2 = 0.3218) [mPa·s] | viscosity (x2 = 0.474) [mPa·s] | electrical conductivity (x2 = 0) [S/m] | electrical conductivity (x2 = 0.0448) [S/m] | electrical conductivity (x2 = 0.2164) [S/m] | electrical conductivity (x2 = 0.3218) [S/m] | electrical conductivity (x2 = 0.474) [S/m] | electrical conductivity (x2 = 0.6254) [S/m] | electrical conductivity (x2 = 0.7856) [S/m] | electrical conductivity (x2 = 0.9447) [S/m]
1 | CC[n+]1ccn(C)c1.F[B-](F)(F)F + CC[n+]1ccn(C)c1.N#C[N-]C#N | 36.8 | 1.55 | – | – | – | – | – | – | – | – | – | – | – | –
2 | CC[n+]1ccn(C)c1.N#C[N-]C#N + CC[n+]1ccn(C)c1.F[B-](F)(F)F | – | – | 17.4 | 19.7 | 21.4 | 23 | 2.83 | 2.79 | 2.61 | 2.49 | 2.3 | 2.1 | 1.87 | 1.64
